Data reported in paper PMC6525201, “Targeting lonidamine to mitochondria mitigates lung tumorigenesis and brain metastasis” (Nature Communications, 2019).

Assays:
mitochondrial complex II = target: T1, mitochondrial complex II (Homo sapiens, UniProt O14521+P21912+Q99643); assay: oxygen consumption rate, Seahorse XF96, permeabilized cells; type: cell-based
T1 construct: gene SDHB; native complex in permeabilized H2030BrM3 cells

mitochondrial complex I = target: T2, mitochondrial complex I (Homo sapiens, UniProt O75251+O75306+P03886); assay: as above; type: cell-based
T2 construct: gene MT-ND1; native complex in permeabilized H2030BrM3 cells

T1 sequence (P21912 29-280): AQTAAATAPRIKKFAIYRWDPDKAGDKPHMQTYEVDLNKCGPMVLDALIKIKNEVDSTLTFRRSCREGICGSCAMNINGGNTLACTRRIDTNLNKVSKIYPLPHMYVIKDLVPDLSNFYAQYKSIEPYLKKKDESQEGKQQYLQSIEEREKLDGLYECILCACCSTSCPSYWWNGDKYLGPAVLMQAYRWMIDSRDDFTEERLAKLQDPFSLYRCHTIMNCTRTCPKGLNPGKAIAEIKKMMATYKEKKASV
T1 sequence (Q99643 30-169): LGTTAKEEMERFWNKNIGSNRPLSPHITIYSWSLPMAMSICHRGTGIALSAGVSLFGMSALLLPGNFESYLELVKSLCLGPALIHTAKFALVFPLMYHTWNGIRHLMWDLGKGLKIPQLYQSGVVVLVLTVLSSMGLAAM
T1 sequence (O14521 57-159): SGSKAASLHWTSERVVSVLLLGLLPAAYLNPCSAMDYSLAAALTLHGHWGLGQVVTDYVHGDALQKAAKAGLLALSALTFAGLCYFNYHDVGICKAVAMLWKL
T1 sequence (P31040 43-664 partner): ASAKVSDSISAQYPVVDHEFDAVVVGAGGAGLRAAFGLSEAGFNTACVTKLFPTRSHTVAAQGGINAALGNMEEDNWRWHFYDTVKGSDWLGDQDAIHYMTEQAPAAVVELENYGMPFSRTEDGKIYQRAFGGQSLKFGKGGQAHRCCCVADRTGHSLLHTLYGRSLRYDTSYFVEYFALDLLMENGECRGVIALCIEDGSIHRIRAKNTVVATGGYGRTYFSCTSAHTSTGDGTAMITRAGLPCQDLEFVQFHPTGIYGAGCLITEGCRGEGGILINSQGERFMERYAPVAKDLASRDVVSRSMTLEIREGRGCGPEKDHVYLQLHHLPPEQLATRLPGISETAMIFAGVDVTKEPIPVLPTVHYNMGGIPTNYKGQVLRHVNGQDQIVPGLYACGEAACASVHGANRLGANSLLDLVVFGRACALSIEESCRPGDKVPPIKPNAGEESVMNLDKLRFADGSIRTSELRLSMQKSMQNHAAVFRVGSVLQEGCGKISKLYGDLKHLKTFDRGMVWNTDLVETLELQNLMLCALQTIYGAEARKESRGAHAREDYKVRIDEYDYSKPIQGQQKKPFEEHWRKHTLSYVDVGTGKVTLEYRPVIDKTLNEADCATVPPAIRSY

| SMILES | IC50 (mitochondrial complex II) [µM] | IC50 (mitochondrial complex I) [µM] |
| --- | --- | --- |
| O=C(O)c1nn(Cc2ccc(Cl)cc2Cl)c2ccccc12 [LND] | 390 | 444 |
| O=C(NCCCCCCCCCC[P+](c1ccccc1)(c1ccccc1)c1ccccc1)c1nn(Cc2ccc(Cl)cc2Cl)c2ccccc12 [Mito-LND] | 2.4 | 1.2 |
